Data as given in EP0334146A1, “Morpholines and morpholine-N-oxides, medicines containing these compounds and process for their preparation” (Dr. Karl Thomae GmbH, priority 1988, dated 1989).

Tested on: Mäusen
Assay: Cardiac side effects: heart rate by ECG-triggered tachograph during the blood glucose test
Assay type: in vivo
Settings: Dose 3,0 mg/kg oral; one hour after application; values in brackets = not significant (p > 0.05)
Excerpt: Das Auftreten von unerwünschten Nebenwirkungen auf das Herz konnte für die erfindungsgemäßen Verbindungen für den therapeutisch angestrebten stoffwechselaktiven Dosisbereich ausgeschlossen werden. Als Nachweis diente die Messung der Herzfrequenz an Mäusen während der Testung auf blutzuckersenkende Wirkung (s.o.). Eine Stunde nach der oralen Applikation der Verbindungen wurde die Herzfrequenz mittels EKG-getriggertem Tachographen bestimmt. Die nachfolgende Tabelle gibt die Änderung der Herzfrequenz in % der Kontrollgruppe wieder.

CC(Cc1ccc(OCC(=O)O)cc1)N1CCOC(c2cccc(Cl)n2)C1 (stereo not shown) [Beispiel 4, N-[2-(4-Carboxymethoxyphenyl)-1-methylethyl]-2-(6-chlor-pyridin-2-yl)-morpholin]
Änderung der Herzfrequenz, % Änderung vom Wert der Kontrollgruppe: ( 0 ) %
